Reference: patent US10844032B2, “Substituted benzofuran, benzothiophene and indole Mcl-1 inhibitors” (Vanderbilt University, priority 2012, dated 2020)

Biological target: recombinant Mcl-1 (residues 172-327) (Homo sapiens (Human), UniProt Q07820)
Experiment: Bak peptide fluorescence polarization anisotropy competition assay, Mcl-1
Format: binding
Conditions: Table 2, Ki range; FITC-Bak peptide 10 nM, Mcl-1 14 nM; read-out: Ki for inhibition of Mcl-1

recombinant Mcl-1 (residues 172-327), sequence (Q07820 172-327): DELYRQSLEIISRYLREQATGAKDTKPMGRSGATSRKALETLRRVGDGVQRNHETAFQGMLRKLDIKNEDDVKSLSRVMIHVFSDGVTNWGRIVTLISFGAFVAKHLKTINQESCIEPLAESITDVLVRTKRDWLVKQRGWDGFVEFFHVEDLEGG

| SMILES | Ki [nM] |
| --- | --- |
| Cc1cc(OCCCc2c(C(=O)NS(=O)(=O)CCNC(=O)CCc3ccccc3)[nH]c3cc(Cl)ccc23)cc(C)c1Cl [Example 230, 6-chloro-3-(3-(4-chloro-3,5-dimethylphenoxy)propyl)-N-((2-(3-phenylpropanamido)ethyl)sulfonyl)-1H-indole-2-carboxamide] | ≤ 100 |
| Cc1cc(OCCCc2c(C(=O)NS(=O)(=O)c3ccccc3)[nH]c3c(-c4c(C)noc4C)cccc23)cc(C)c1Cl [Example 88, 3-(3-(4-chloro-3,5-dimethylphenoxy)propyl)-7-(3,5-dimethylisoxazol-4-yl)-N-(phenylsulfonyl)-1H-indole-2-carboxamide] | ≤ 100 |
| Cc1ccsc1-c1cccc2c(CCCOc3cc(C)c(Cl)c(C)c3)c(C(=O)NS(=O)(=O)c3ccccc3)[nH]c12 [Example 99, 3-(3-(4-chloro-3,5-dimethylphenoxy)propyl)-7-(3-methylthiophen-2-yl)-N-(phenylsulfonyl)-1H-indole-2-carboxamide] | ≤ 100 |
| Cc1cc(OCCCc2c(C(=O)NS(=O)(=O)CCNC(=O)c3cccc(C(F)(F)F)c3)[nH]c3cc(Cl)ccc23)cc(C)c1Cl [Example 255, 6-chloro-3-(3-(4-chloro-3,5-dimethylphenoxy)propyl)-N-((2-(3-(trifluoromethyl)benzamido)ethyl)sulfonyl)-1H-indole-2-carboxamide] | ≤ 100 |

Same assay, conditions: read-out: Ki for inhibition of Mcl-1

| SMILES | Ki [nM] |
| --- | --- |
| COC(=O)c1ccc(S(=O)(=O)NC(=O)c2[nH]c3cc(Cl)ccc3c2CCCOc2cc(C)c(Cl)c(C)c2)o1 [Example 259] | 101 to 299 |
| O=C(O)c1sc2c(-c3ccccc3)cccc2c1CCCOc1cccc2ccccc12 [Example 11, 3-(3-(naphthalen-1-yloxy)propyl)-7-phenylbenzo[b]thiophene-2-carboxylic acid] | 501 to 999 |
| Cc1cc(OCCCc2c(C(=O)NS(=O)(=O)c3ccc(Oc4ccc(Cl)c(Cl)c4)cc3)[nH]c3cc(Cl)ccc23)cc(C)c1Cl [Example 221, 6-chloro-3-(3-(4-chloro-3,5-dimethylphenoxy)propyl)-N-((4-(3,4-dichlorophenoxy)phenyl)sulfonyl)-1H-indole-2-carboxamide] | 301 to 500 |
| Cc1cc(OCCCc2c(C(=O)NS(=O)(=O)CC3CCN(C(=O)c4cccn4C)CC3)[nH]c3ccccc23)cc(C)c1Cl [Example 211, 3-(3-(4-chloro-3,5-dimethylphenoxy)propyl)-N-(((1-(1-methyl-1H-pyrrole-2-carbonyl)piperidin-4-yl)methyl)sulfonyl)-1H-indole-2-carboxamide] | 301 to 500 |
| Cc1cc(OCCCc2c(C(=O)NS(=O)(=O)C3CCN(C(=O)CCc4ccccc4)CC3)[nH]c3cc(Cl)ccc23)cc(C)c1Cl [Example 310, 6-chloro-3-(3-(4-chloro-3,5-dimethylphenoxy)propyl)-N-((1-(3-phenylpropanoyl)piperidin-4-yl)sulfonyl)-1H-indole-2-carboxamide] | 101 to 299 |
| COCc1nn(C)c(C)c1-c1cccc2c(CCCOc3cc(C)c(Cl)c(C)c3)c(C(=O)NS(=O)(=O)c3ccccc3)n(Cc3cccnc3)c12 [Example 128, 3-(3-(4-Chloro-3,5-dimethylphenoxy)propyl)-7-(3-(methoxymethyl)-1,5-dimethyl-1H-pyrazol-4-yl)-N-(phenylsulfonyl)-1-(pyridin-3-ylmethyl)-1H-indole-2-carboxamide] | 101 to 299 |
| Cc1cc(OCCCc2c(C(=O)NS(=O)(=O)CCN3C(=O)c4ccccc4C3=O)[nH]c3cc(Cl)ccc23)cc(C)c1Cl [Example 250, 6-chloro-3-(3-(4-chloro-3,5-dimethylphenoxy)propyl)-N-((2-(1,3-dioxoisoindolin-2-yl)ethyl)sulfonyl)-1H-indole-2-carboxamide] | 101 to 299 |
| Cc1cc(OCCCc2c(C(=O)NS(=O)(=O)CCNC(=O)/C=C/c3ccccc3)[nH]c3ccccc23)cc(C)c1Cl [Example 163, (E)-3-(3-(4-chloro-3,5-dimethylphenoxy)propyl)-N-((2-cinnamamidoethyl)sulfonyl)-1H-indole-2-carboxamide] | 101 to 299 |
| Cc1cc(OCCCc2c(C(=O)NS(=O)(=O)CCNC(=O)CCc3ccccc3)[nH]c3ccccc23)cc(C)c1Cl [Example 164, 3-(3-(4-chloro-3,5-dimethylphenoxy)propyl)-N-((2-(3-phenylpropanamido)ethyl)sulfonyl)-1H-indole-2-carboxamide] | 101 to 299 |
| Cc1cc(OCCCc2c(C(=O)NS(C)(=O)=O)[nH]c3cccc(C(F)(F)F)c23)ccc1Cl [Example 80, 3-(3-(4-chloro-3-methylphenoxy)propyl)-N-(methylsulfonyl)-4-(trifluoromethyl)-1H-indole-2-carboxamide] | 101 to 299 |
| Cc1cc(OCCCc2c(C(=O)NS(=O)(=O)CCNC(=O)c3ccn[nH]3)[nH]c3ccccc23)cc(C)c1Cl [Example 181, N-((2-(1H-pyrazole-5-carboxamido)ethyl)sulfonyl)-3-(3-(4-chloro-3,5-dimethylphenoxy)propyl)-1H-indole-2-carboxamide] | 1000 to 9990 |
| CS(=O)(=O)NC(=O)c1[nH]c2cc(Cl)ccc2c1CCCOc1cccc2ccccc12 [Example 52, 6-chloro-N-(methylsulfonyl)-3-(3-(naphthalen-1-yloxy)propyl)-1H-indole-2-carboxamide] | 101 to 299 |
| Cc1cc(OCCCc2c(C(=O)NS(=O)(=O)C3CC3)[nH]c3cc(Cl)ccc23)cc(C)c1Cl [Example 65, 6-chloro-3-(3-(4-chloro-3,5-dimethylphenoxy)propyl)-N-(cyclopropylsulfonyl)-1H-indole-2-carboxamide] | 101 to 299 |
| Cc1cc(OCCCc2c(C(=O)NS(=O)(=O)Cc3ccccc3)sc3ccccc23)cc(C)c1Cl [Example 70, N-(benzylsulfonyl)-3-(3-(4-chloro-3,5-dimethylphenoxy)propyl)benzo[b]thiophene-2-carboxamide] | 501 to 999 |
| O=C(O)c1sc2ccccc2c1CCCc1cccc2ccccc12 [Example 63, 3-(3-(naphthalen-1-yl)propyl)benzo[b]thiophene-2-carboxylic acid] | 1000 to 9990 |
| Cc1cc(OCCCc2c(C(=O)NS(=O)(=O)CCNC(=O)c3ccc4c(ccn4C)c3)[nH]c3ccccc23)cc(C)c1Cl [Example 196, 3-(3-(4-chloro-3,5-dimethylphenoxy)propyl)-N-((2-(1-methyl-1H-indole-5-carboxamido)ethyl)sulfonyl)-1H-indole-2-carboxamide] | 301 to 500 |
| Cc1ccccc1-c1ccc2c(CCCOc3cccc4ccccc34)c(C(=O)O)sc2c1 [Example 12, 3-(3-(naphthalen-1-yloxy)propyl)-6-(o-tolyl)benzo[b]thiophene-2-carboxylic acid] | 1000 to 9990 |
| Cc1cc(OCCCc2c(C(=O)NS(=O)(=O)c3ccc(C(=O)N4CCOCC4)n3C)[nH]c3cc(Cl)ccc23)cc(C)c1Cl [Example 267, 6-chloro-3-(3-(4-chloro-3,5-dimethylphenoxy)propyl)-N-((1-methyl-5-(morpholine-4-carbonyl)-1H-pyrrol-2-yl)sulfonyl)-1H-indole-2-carboxamide] | 101 to 299 |
| COc1ccc(S(=O)(=O)NCCS(=O)(=O)NC(=O)c2[nH]c3ccccc3c2CCCOc2cc(C)c(Cl)c(C)c2)cc1 [Example 147, 3-(3-(4-chloro-3,5-dimethylphenoxy)propyl)-N-((2-(4-methoxyphenylsulfonamido)ethyl)sulfonyl)-1H-indole-2-carboxamide] | 301 to 500 |
| CS(=O)(=O)NC(=O)c1[nH]c2ccccc2c1CCCOc1cccc2c1CCCC2 [Example 46, N-(methylsulfonyl)-3-(3-((5,6,7,8-tetrahydronaphthalen-1-yl)oxy)propyl)-1H-indole-2-carboxamide] | 1000 to 9990 |
| Cc1cc(OCCCc2c(C(=O)NS(C)(=O)=O)[nH]c3c(-c4c(CO)nn(C)c4C)cccc23)cc(C)c1Cl [Example 126, 3-(3-(4-chloro-3,5-dimethylphenoxy)propyl)-7-(3-(hydroxymethyl)-1,5-dimethyl-1H-pyrazol-4-yl)-N-(methylsulfonyl)-1H-indole-2-carboxamide] | 101 to 299 |
| Cc1ccoc1C(=O)NCCS(=O)(=O)NC(=O)c1[nH]c2ccccc2c1CCCOc1cc(C)c(Cl)c(C)c1 [Example 156] | 501 to 999 |
| Cc1cc(OCCCc2c(C(=O)NS(=O)(=O)c3ccc(C(=O)NC4CCOCC4)o3)[nH]c3cc(Cl)ccc23)cc(C)c1Cl [Example 263, 6-chloro-3-(3-(4-chloro-3,5-dimethylphenoxy)propyl)-N-((5-((tetrahydro-2H-pyran-4-yl)carbamoyl)furan-2-yl)sulfonyl)-1H-indole-2-carboxamide] | 101 to 299 |
| CS(=O)(=O)NC(=O)c1[nH]c2ccccc2c1CCCOc1ccc(Cl)cc1 [Example 35, 3-(3-(4-chlorophenoxy)propyl)-N-(methylsulfonyl)-1H-indole-2-carboxamide] | 10000 to 50000 |
| Cc1cc(OCCCc2c(C(=O)NS(=O)(=O)CCNC(=O)c3cccn3Cc3ccccc3)[nH]c3ccccc23)cc(C)c1Cl [Example 200, N-((2-(1-benzyl-1H-pyrrole-2-carboxamido)ethyl)sulfonyl)-3-(3-(4-chloro-3,5-dimethylphenoxy)propyl)-1H-indole-2-carboxamide] | 101 to 299 |
| Cc1cc(OCCCc2c(C(=O)NS(=O)(=O)C3CC3)sc3ccccc23)cc(C)c1Cl [Example 69, 3-(3-(4-chloro-3,5-dimethylphenoxy)propyl)-N-(cyclopropylsulfonyl)benzo[b]thiophene-2-carboxamide] | 1000 to 9990 |
| Cc1cc(OCCCc2c(C(=O)NS(=O)(=O)CCNC(=O)c3c[nH]cn3)[nH]c3ccccc23)cc(C)c1Cl [Example 186, N-((2-(1H-imidazole-4-carboxamido)ethyl)sulfonyl)-3-(3-(4-chloro-3,5-dimethylphenoxy)propyl)-1H-indole-2-carboxamide] | 1000 to 9990 |
| CS(=O)(=O)NC(=O)c1[nH]c2ccccc2c1CCCOc1cccc2ccccc12 [Example 19, N-(methylsulfonyl)-3-(3-(naphthalen-1-yloxy)propyl)-1H-indole-2-carboxamide] | 1000 to 9990 |
| Cc1cc(OCCCc2c(C(=O)NS(=O)(=O)CCNC(=O)CC34CC5CC(CC(C5)C3)C4)[nH]c3ccccc23)cc(C)c1Cl [Example 179, N-((2-(2-((1s,3s)-adamantan-1-yl)acetamido)ethyl)sulfonyl)-3-(3-(4-chloro-3,5-dimethylphenoxy)propyl)-1H-indole-2-carboxamide] | 101 to 299 |
